Key:
[1] = test system: KCNQ1; assay: RT-qPCR of KCNQ1 in hiPSC-CMs; format: cell-based, human
[2] = test system: Ito; set-up: method as in Chen et al., 2020; Guo et al., 2021; settings: as a sigma-1 receptor agonist; ref Chen et al., 2020; Guo et al., 2021; cited from earlier work
[3] = test system: sodium or calcium channels (SLC8A1, CACNA1C, SCN5A); assay: RT-qPCR of cardiac ion channel genes in hiPSC-CMs: sodium or calcium channels; format: cell-based, human; settings: GAPDH housekeeping
[4] = test system: COVID-19; set-up: method as in Lenze et al., 2020; settings: hospitalized patients with COVID-19, double-blind RCT; ref Lenze et al., 2020; cited from earlier work
[5] = test system: ICaL; set-up: method as in Chen et al., 2020; Guo et al., 2021; settings: as a sigma-1 receptor agonist; ref Chen et al., 2020; Guo et al., 2021; cited from earlier work
[6] = test system: hiPSC-CMs; assay: Action potential recording in hiPSC-CMs, whole-cell patch-clamp (current-clamp); format: cell-based, human; settings: for decrease of APD vs CTL / APD (APD90): 24-h incubation; for APD (APD90): CTL 364.4 ms, p < 0.0001, n = 14; for early after-depolarizations (EADs) during repolarization: transient effect, recorded within 1 hour
[7] = test system: SARS-CoV-2; set-up: method as in Lou et al., 2021; settings: read-out: 50% effective inhibition concentration (EC50) against SARS-CoV-2; ref Lou et al., 2021; cited from earlier work
[8] = test system: Hsp70; assay: Western blot of chaperone Hsp70 after 24 h incubation; format: cell-based, human; settings: LPV 1-20 μM, especially at 10 μM
[9] = test system: Hsp90; assay: Western blot of chaperone Hsp90 after 24 h incubation; format: cell-based, human; settings: LPV 1-20 μM
[10] = test system: hERG protein; set-up: method as in Borsini et al., 2012; settings: ref Borsini et al., 2012; cited from earlier work
[11] = test system: hERG potassium channel; set-up: method as in Szendrey et al., 2021; settings: ref Szendrey et al., 2021; cited from earlier work
[12] = test system: hERG; set-up: method as in Szendrey et al., 2021; settings: when acting alone; ref Szendrey et al., 2021; cited from earlier work
[13] = FLV-treated hiPSC-CMs, Figure 6H
[14] = LPV-treated hiPSC-CMs, Figure 6H

COCCCC/C(=N\OCCN)c1ccc(C(F)(F)F)cc1 [FLV, fluvoxamine]
level of KCNQ1 nucleic acid ([1]; chronic FLV administration): increased
effect on Ito [2]: enhances
mRNA expression of sodium or calcium channels ([3]; 3 μM FLV): did not significantly alter
clinical deterioration rate [4]: lower clinical deterioration rate
effect on ICaL [5]: decreases
decrease of APD vs CTL ([6]; 3 μM FLV): 183.6 ms
APD (APD90) ([6]; 3 μM FLV): 180.8 ms
early after-depolarizations (EADs) during repolarization ([6]; 3 μM FLV): induce the occurrence of EADs
APD10 [6, 13]: 52.3 ± 8.8 ms
Amp (amplitude) [6, 13]: 99.2±9.7 mV
MDP (maximum diastolic potential) [6, 13]: -51.8±8.3 mV

Cc1cccc(C)c1OCC(=O)N[C@@H](Cc1ccccc1)[C@@H](O)C[C@H](Cc1ccccc1)NC(=O)[C@H](C(C)C)N1CCCNC1=O [LPV, lopinavir]
level of KCNQ1 nucleic acid ([1]; chronic LPV administration): increased
EC50 [7]: 1.74 µM
mRNA expression of sodium or calcium channels ([3]; 10 μM LPV): did not significantly alter
expression of Hsp70 [8]: significantly increased
decrease of APD vs CTL ([6]; 10 μM LPV): 191.8 ms
APD (APD90) ([6]; 10 μM LPV): 172.6 ms
early after-depolarizations (EADs) during repolarization ([6]; 10 μM LPV): induce the occurrence of EADs
APD10 [6, 14]: 48.9 ± 10.3 ms
APD30 [6, 14]: 103.6 ± 11.2 ms
Amp (amplitude) [6, 14]: 103.8±6.1 mV
MDP (maximum diastolic potential) [6, 14]: -59.1±3.6 mV
expression levels of Hsp90 [9]: significant reduction

CCN(CC)CCCC(C)Nc1ccnc2cc(Cl)ccc12 (stereo not shown) [chloroquine]
trafficking of the hERG protein [10]: prompted the trafficking
effect on the hERG current (IhERG) [11]: acutely and severely inhibited

CCN(CCO)CCCC(C)Nc1ccnc2cc(Cl)ccc12 (stereo not shown) [hydroxychloroquine]
effect on the hERG current (IhERG) [11]: acutely and severely inhibited

CCC(CC)COC(=O)[C@H](C)N[P@](=O)(OC[C@H]1O[C@@](C#N)(c2ccc3c(N)ncnn23)[C@H](O)[C@@H]1O)Oc1ccccc1 [remdesivir]
hERG maturation [12]: promoted hERG maturation
effect on the hERG current (IhERG) [11]: increased
